Measured values: patent publication US11046716B2, “Beta-lactamase inhibitors” (priority 2015, dated 2021)

What was measured:
VIM-2 = target: T1, VIM-2 (Escherichia coli, UniProt Q5U7L7); test: β-lactamase enzyme inhibition assay, VIM-2 (nitrocefin substrate); type: biochemical; settings: Class B; nitrocefin substrate, 486 nm; read-out: VIM-2
T1 construct: made in house; host or cells: E. coli BL21(DE3)
In short: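 IC50 reflects the inhibitor concentration cutting the initial nitrocefin hydrolysis rate by half, compared with control wells lacking inhibitor. Substrate was used at 100 μM final after a 15 min, 37 °C enzyme–inhibitor preincubation.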

OXA-48 = OXA-48 (UniProt Q6XEC0); test: β-lactamase enzyme inhibition assay, Class D oxacillinase; type: biochemical; settings: read-out: OXA-48
KPC-2 = target: T2, KPC-2 (Klebsiella pneumoniae, UniProt Q9F663); test: β-lactamase enzyme inhibition assay, KPC-2 (imipenem substrate); type: biochemical; settings: Class A; imipenem substrate, 300 nm; read-out: KPC-2
T2 construct: made in house; host or cells: E. coli BL21(DE3)
T2 sequence (Q9F663 25-293, looked up): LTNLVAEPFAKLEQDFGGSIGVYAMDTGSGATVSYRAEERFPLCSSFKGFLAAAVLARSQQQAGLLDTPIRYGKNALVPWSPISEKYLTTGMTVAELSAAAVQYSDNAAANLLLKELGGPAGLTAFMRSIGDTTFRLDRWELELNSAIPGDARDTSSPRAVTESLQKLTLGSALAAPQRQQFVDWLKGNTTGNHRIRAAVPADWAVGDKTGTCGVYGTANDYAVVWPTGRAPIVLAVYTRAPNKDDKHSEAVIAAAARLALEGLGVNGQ
In short: (§1)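 Native untagged enzymes expressed in E. coli BL21(DE3), purified by cation exchange and gel filtration. Inhibitor preincubated with enzyme 15 min at 37 °C; hydrolysis followed by absorbance: imipenem at 300 nm for KPC-2, cefotaxime at 260 nm for SHV-5. IC50 as concentration halving initial hydrolysis rate versus inhibitor-free wells.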

AmpC = target: T3, AmpC (Enterobacter cloacae, UniProt P05364); test: β-lactamase enzyme inhibition assay, p99 AmpC (nitrocefin substrate); type: biochemical
T3 construct: made in house; host or cells: E. coli BL21(DE3)
T3 sequence (P05364 21-381): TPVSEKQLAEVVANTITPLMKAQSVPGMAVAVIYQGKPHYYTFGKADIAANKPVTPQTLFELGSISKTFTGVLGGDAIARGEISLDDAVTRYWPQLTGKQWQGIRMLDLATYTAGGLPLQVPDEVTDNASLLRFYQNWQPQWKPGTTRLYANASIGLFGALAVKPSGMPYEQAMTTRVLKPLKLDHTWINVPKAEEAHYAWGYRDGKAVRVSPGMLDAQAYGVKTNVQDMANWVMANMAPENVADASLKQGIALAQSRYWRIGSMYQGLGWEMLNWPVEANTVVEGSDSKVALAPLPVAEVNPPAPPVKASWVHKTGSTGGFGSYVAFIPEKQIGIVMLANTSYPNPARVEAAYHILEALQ
In short: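 Native untagged enzymes expressed in E. coli BL21(DE3), purified by cation exchange and gel filtration. Inhibitor preincubated with enzyme 15 min at 37 °C; hydrolysis followed by absorbance. IC50 as concentration halving initial hydrolysis rate versus inhibitor-free wells.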

[1] = system: P. aeruginosa expressing the Class B carbapenemase VIM-2; test: Broth microdilution MIC assay with meropenem, P. aeruginosa VIM-2; type: cell-based; settings: Fixed Mero (meropenem) 4 μg/mL; P. aerug. 2775 VIM-2
In short: (§2)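 Potentiation format: the β-lactam was held at 4 μg/ml while the test compound was serially diluted, and growth was scored visually after overnight (16-20 h) incubation at 37° C.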

[2] = system: K. pneumoniae producing the Class D carbapenemase OXA-48; test: Broth microdilution MIC assay with meropenem, K. pneumoniae OXA-48; type: cell-based; settings: Fixed Mero (meropenem) 4 μg/mL; K. p. 11978 OXA-48
In short: as §2

[3] = system: E. cloacae expressing the Class C P99; test: Broth microdilution MIC assay with ceftazidime, E. cloacae P99; type: cell-based; settings: Fixed CAZ (ceftazidime) 4 μg/mL; E. cl. 144200 p99 AmpC
Description: To determine the ability of test compounds to potentiate the inhibition of the growth of bacterial strains that produce beta-lactamase enzymes in the presence of a β-lactam antibiotic, classic cell based broth microdilution MIC assays were employed. Six bacteria strains producing beta-lactamase enzymes were used: E. coli expressing the Class A Extended Spectrum Beta-Lactamase (ESBL) CTX-M-15, E. cloacae expressing the Class C P99, K. pneumoniae expressing the Class A carbapenemase KPC-2, P. aeruginosa expressing the Class B carbapenemase VIM-2, K. pneumoniae expressing the class A carbapenemase KPC-2 and the class B carbapenemase VIM-4, and K. pneumoniae producing the Class D carbapenemase OXA-48. The assay was conducted in Cation Adjusted Mueller Hinton Broth (CAMHB, BD #212322, BD Diagnostic Systems, Sparks, Md.). Bacteria strains were grown for 3-5 hours in CAMBH broth. Test compounds (Examples 1-94) were added to a microtiter plate in 2-fold serial dilutions in CAMHB in a final concentration range of 16 μg/mL to 0.125 μg/ml. An overlay of CAMHB containing a Beta-lactam was added to the compounds at a final static concentration of 4 μg/ml. […] In addition to the titration of test compounds the MICs of a panel of control beta-lactams is also tested to ensure the strains are behaving consistently from test to test. Once the test compound and antibiotics are added the plates can be inoculated according to CLSI broth microdilution method. After inoculation the plates are incubated for 16-20 hours at 37° C. then the Minimal Inhibitory Concentration (MIC) of the test compound is determined visually.
Using the methodology described above, examples of the current invention were evaluated for their ability to inhibit the growth of β-lactamase-producing bacteria in the presence of a β-lactam antibiotic.

[4] = system: K. pneumoniae expressing the Class A carbapenemase KPC-2; test: Broth microdilution MIC assay with meropenem, K. pneumoniae KPC-2; type: cell-based; settings: Fixed Mero (meropenem) 4 μg/mL; K. p. 156319 KPC-3
In short: as §2

[5] = system: E. coli expressing the Class A Extended Spectrum Beta-Lactamase (ESBL) CTX-M-15; test: Broth microdilution MIC assay with ceftazidime, E. coli CTX-M-15; type: cell-based; settings: Fixed CAZ (ceftazidime) 4 μg/mL; E. coli ESBL4 CTX-M-15
In short: as §2

SHV-5 = target: T4, SHV-5 (Klebsiella pneumoniae, UniProt P0A3M1); test: β-lactamase enzyme inhibition assay, SHV-5 (cefotaxime substrate); type: biochemical
T4 construct: made in house; host or cells: E. coli BL21(DE3)
T4 sequence (P0A3M1 22-286): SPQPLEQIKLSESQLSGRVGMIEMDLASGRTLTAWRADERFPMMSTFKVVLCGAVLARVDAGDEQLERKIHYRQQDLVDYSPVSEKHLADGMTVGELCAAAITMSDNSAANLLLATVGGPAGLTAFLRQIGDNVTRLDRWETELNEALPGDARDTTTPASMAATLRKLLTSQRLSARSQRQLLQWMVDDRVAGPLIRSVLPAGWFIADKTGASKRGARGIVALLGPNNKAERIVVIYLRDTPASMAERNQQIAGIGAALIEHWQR
In short: as §1

[6] = system: K. pneumoniae expressing the class A carbapenemase KPC-2 and the class B carbapenemase VIM-4; test: Broth microdilution MIC assay with meropenem, K. pneumoniae KPC-2 and VIM-4; type: cell-based; settings: Fixed Mero (meropenem) 4 μg/mL; K. p. A-1797 KPC-2 VIM-4
In short: as §2

SMILES | IC50 (VIM-2) | IC50 (OXA-48) | IC50 (KPC-2) | IC50 (AmpC) | MIC (μg/mL) of Exemplary Compounds in presence of fixed β-lactams: P. aerug. 2775 VIM-2 [1] | MIC (μg/mL) of Exemplary Compounds in presence of fixed β-lactams: K. p. 11978 OXA-48 [2] | MIC (μg/mL) of Exemplary Compounds in presence of fixed β-lactams: E. cl. 144200 p99 AmpC [3] | MIC (μg/mL) of Exemplary Compounds in presence of fixed β-lactams: K. p. 156319 KPC-3 [4] | MIC (μg/mL) of Exemplary Compounds in presence of fixed β-lactams: E. coli ESBL4 CTX-M-15 [5] | IC50 (SHV-5) | MIC (μg/mL) of Exemplary Compounds in presence of fixed β-lactams: K. p. A-1797 KPC-2 VIM-4 [6]
NCCn1nnc(CC(=O)N[C@H]2Cc3cccc(C(=O)O)c3OB2O)n1 [Example 42, (R)-3-(2-(2-(2-aminoethyl)-2H-tetrazol-5-yl)acetamido)-2-hydroxy-3,4-dihydro-2H-benzo[e][1,2]oxaborinine-8-carboxylic acid] | < 100 nM | 100 to 1000 nM | < 100 nM | < 100 nM | C (C represents an MIC of <1 μg/mL) | B (B represents an MIC between 1 and 16 μg/mL inclusive) | C (C represents an MIC of <1 μg/mL) | C (C represents an MIC of <1 μg/mL) | C (C represents an MIC of <1 μg/mL) | < 100 nM | C (C represents an MIC of <1 μg/mL)
NCC(O)Cc1cn(CC(=O)N[C@H]2Cc3cccc(C(=O)O)c3OB2O)nn1 (stereo partly drawn) [Example 92, (3R)-3-(2-(4-(3-amino-2-hydroxypropyl)-1H-1,2,3-triazol-1-yl)acetamido)-2-hydroxy-3,4-dihydro-2H-benzo[e][1,2]oxaborinine-8-carboxylic acid] | < 100 nM | 1000 to 10000 nM | < 100 nM | < 100 nM | C (C represents an MIC of <1 μg/mL) | B (B represents an MIC between 1 and 16 μg/mL inclusive) | C (C represents an MIC of <1 μg/mL) | C (C represents an MIC of <1 μg/mL) | C (C represents an MIC of <1 μg/mL) | 100 to 1000 nM | B (B represents an MIC between 1 and 16 μg/mL inclusive)
O=C(Cn1cnnn1)N[C@H]1Cc2cccc(C(=O)O)c2OB1O [Example 97, (R)-3-(2-(1H-tetrazol-1-yl)acetamido)-2-hydroxy-3,4-dihydro-2H-benzo[e][1,2]oxaborinine-8-carboxylic acid] | 100 to 1000 nM | < 100 nM | < 100 nM | < 100 nM | B (B represents an MIC between 1 and 16 μg/mL inclusive) | C (C represents an MIC of <1 μg/mL) | C (C represents an MIC of <1 μg/mL) | C (C represents an MIC of <1 μg/mL) | C (C represents an MIC of <1 μg/mL) | < 100 nM | B (B represents an MIC between 1 and 16 μg/mL inclusive)
NCCCn1nnc(CC(=O)N[C@H]2Cc3cccc(C(=O)O)c3OB2O)n1 [Example 51] | < 100 nM | 1000 to 10000 nM | < 100 nM | < 100 nM | C (C represents an MIC of <1 μg/mL) | B (B represents an MIC between 1 and 16 μg/mL inclusive) | C (C represents an MIC of <1 μg/mL) | C (C represents an MIC of <1 μg/mL) | C (C represents an MIC of <1 μg/mL) | < 100 nM | B (B represents an MIC between 1 and 16 μg/mL inclusive)
